# Measurements from ChEMBL document CHEMBL1268814, “Synthesis and biological evaluation of bivalent ligands for the cannabinoid 1 receptor” (J Med Chem, 2010).
# Active and inactive are the calls of the source. No cut-off for these calls is given here.
# Target: T1, Cannabinoid receptor 1 (Homo sapiens, UniProt P21554)
# Experiment: not given
# Conditions: CHO
# T1 sequence (P21554 whole entry): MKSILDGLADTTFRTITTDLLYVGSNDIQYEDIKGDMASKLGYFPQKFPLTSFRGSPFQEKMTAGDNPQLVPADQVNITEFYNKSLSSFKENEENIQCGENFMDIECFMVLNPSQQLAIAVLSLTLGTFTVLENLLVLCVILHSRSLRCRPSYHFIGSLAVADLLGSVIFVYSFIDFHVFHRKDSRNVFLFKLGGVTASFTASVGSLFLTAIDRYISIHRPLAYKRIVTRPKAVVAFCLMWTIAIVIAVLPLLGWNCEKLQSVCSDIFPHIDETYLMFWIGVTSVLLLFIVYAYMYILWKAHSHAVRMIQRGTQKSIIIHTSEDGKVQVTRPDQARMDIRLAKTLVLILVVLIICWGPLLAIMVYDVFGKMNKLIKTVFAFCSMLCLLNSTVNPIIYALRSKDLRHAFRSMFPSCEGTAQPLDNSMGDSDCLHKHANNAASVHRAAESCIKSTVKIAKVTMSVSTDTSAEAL
row,Compound,Ke
1,Cc1c(C(=O)NCCCCCCCN(C)CCCCCCCN)nn(-c2ccc(Cl)cc2Cl)c1-c1ccc(Cl)cc1,220 nM
2,Cc1c(C(=O)NCCCCCCCCCCCNCCCCCCCCCCCN)nn(-c2ccc(Cl)cc2Cl)c1-c1ccc(Cl)cc1,146 nM
3,Cc1c(C(=O)NCCCCCCCCCNCCCCCCCCCNC(=O)c2nn(-c3ccc(Cl)cc3Cl)c(-c3ccc(Cl)cc3)c2C)nn(-c2ccc(Cl)cc2Cl)c1-c1ccc(Cl)cc1,4160 nM
4,Cc1c(C(=O)NCCCCCCCCCCCN(C)CCCCCCCCCCCNC(=O)c2nn(-c3ccc(Cl)cc3Cl)c(-c3ccc(Cl)cc3)c2C)nn(-c2ccc(Cl)cc2Cl)c1-c1ccc(Cl)cc1,inactive
5,Cc1c(C(=O)NCCCCCCCNCCCCCCCN)nn(-c2ccc(Cl)cc2Cl)c1-c1ccc(Cl)cc1,503 nM

# Target: T1, Cannabinoid receptor 1
# Experiment: Antagonist activity at human brain CB1 receptor assessed as inhibition for [35S]GTPgammaS binding
# Assay type: functional
# Conditions: not given
row,Compound,EC50 [nM]
1,Cc1c(C(=O)NCCCCCCCCCNCCCCCCCCCNC(=O)c2nn(-c3ccc(Cl)cc3Cl)c(-c3ccc(Cl)cc3)c2C)nn(-c2ccc(Cl)cc2Cl)c1-c1ccc(Cl)cc1,27.9
2,Cc1c(C(=O)NCCCCCCCCCCCN(C)CCCCCCCCCCCNC(=O)c2nn(-c3ccc(Cl)cc3Cl)c(-c3ccc(Cl)cc3)c2C)nn(-c2ccc(Cl)cc2Cl)c1-c1ccc(Cl)cc1,> 25000

# Target: T1, Cannabinoid receptor 1
# Experiment: biochemical
# Assay type: cell-based, HEK293
# Conditions: not given
row,Compound,Ki [nM]
1,Cc1c(C(=O)NCCCCCCCN(C)CCCCCCCN)nn(-c2ccc(Cl)cc2Cl)c1-c1ccc(Cl)cc1,15.5
2,Cc1c(C(=O)NCCCCCCCCCCCNCCCCCCCCCCCN)nn(-c2ccc(Cl)cc2Cl)c1-c1ccc(Cl)cc1,2.3
3,Cc1c(C(=O)NCCCCCCCCCNCCCCCCCCCNC(=O)c2nn(-c3ccc(Cl)cc3Cl)c(-c3ccc(Cl)cc3)c2C)nn(-c2ccc(Cl)cc2Cl)c1-c1ccc(Cl)cc1,57.4
4,Cc1c(C(=O)NCCCCCCCCCCCN(C)CCCCCCCCCCCNC(=O)c2nn(-c3ccc(Cl)cc3Cl)c(-c3ccc(Cl)cc3)c2C)nn(-c2ccc(Cl)cc2Cl)c1-c1ccc(Cl)cc1,1290
5,Cc1c(C(=O)NCCCCCCCNCCCCCCCN)nn(-c2ccc(Cl)cc2Cl)c1-c1ccc(Cl)cc1,19.5

# Target: Cannabinoid receptor 1 (Rattus norvegicus) (UniProt P20272)
# Experiment: Antagonist activity at rat brain CB1 receptor assessed as inhibition of [35S]GTPgammaS binding at 10000 nM
# Assay type: functional
# Conditions: not given
# Cannabinoid receptor 1 (Rattus norvegicus), sequence (P20272 whole entry): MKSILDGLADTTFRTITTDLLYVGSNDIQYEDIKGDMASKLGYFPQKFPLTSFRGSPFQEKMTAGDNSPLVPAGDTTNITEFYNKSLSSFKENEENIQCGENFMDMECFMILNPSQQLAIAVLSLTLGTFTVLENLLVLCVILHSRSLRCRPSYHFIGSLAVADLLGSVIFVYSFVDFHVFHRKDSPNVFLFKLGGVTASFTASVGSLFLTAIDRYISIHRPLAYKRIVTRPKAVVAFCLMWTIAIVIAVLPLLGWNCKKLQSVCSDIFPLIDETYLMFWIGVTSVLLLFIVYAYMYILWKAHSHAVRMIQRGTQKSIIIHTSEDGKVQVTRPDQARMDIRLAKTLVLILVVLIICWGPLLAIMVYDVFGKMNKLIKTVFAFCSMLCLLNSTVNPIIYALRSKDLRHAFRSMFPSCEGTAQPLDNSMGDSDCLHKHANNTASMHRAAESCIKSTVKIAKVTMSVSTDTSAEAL
row,Compound,Emax [%]
1,Cc1c(C(=O)NCCCCCCCN(C)CCCCCCCN)nn(-c2ccc(Cl)cc2Cl)c1-c1ccc(Cl)cc1,-62
2,Cc1c(C(=O)NCCCCCCCCCCCNCCCCCCCCCCCN)nn(-c2ccc(Cl)cc2Cl)c1-c1ccc(Cl)cc1,-29.2
3,Cc1c(C(=O)NCCCCCCCCCNCCCCCCCCCNC(=O)c2nn(-c3ccc(Cl)cc3Cl)c(-c3ccc(Cl)cc3)c2C)nn(-c2ccc(Cl)cc2Cl)c1-c1ccc(Cl)cc1,10.4
4,Cc1c(C(=O)NCCCCCCCCCCCN(C)CCCCCCCCCCCNC(=O)c2nn(-c3ccc(Cl)cc3Cl)c(-c3ccc(Cl)cc3)c2C)nn(-c2ccc(Cl)cc2Cl)c1-c1ccc(Cl)cc1,17.3
5,Cc1c(C(=O)NCCCCCCCNCCCCCCCN)nn(-c2ccc(Cl)cc2Cl)c1-c1ccc(Cl)cc1,-52.8

# Target: T1, Cannabinoid receptor 1
# Experiment: Antagonist activity at human brain CB1 receptor assessed as inhibition for [35S]GTPgammaS binding at 10000 nM
# Assay type: functional
# Conditions: not given
row,Compound,Emax [%]
1,Cc1c(C(=O)NCCCCCCCCCNCCCCCCCCCNC(=O)c2nn(-c3ccc(Cl)cc3Cl)c(-c3ccc(Cl)cc3)c2C)nn(-c2ccc(Cl)cc2Cl)c1-c1ccc(Cl)cc1,6.5

# Tested on: Mus musculus
# Experiment: Inhibition of compound 21-induced antinociception in mouse at 10 mg/kg, ip administered 30 mins before compound-21 dosing by tail flick latency test
# Conditions: not given
row,Compound,inhibition
1,Cc1c(C(=O)NCCCCCCCN(C)CCCCCCCN)nn(-c2ccc(Cl)cc2Cl)c1-c1ccc(Cl)cc1,Active
2,Cc1c(C(=O)NCCCCCCCNCCCCCCCN)nn(-c2ccc(Cl)cc2Cl)c1-c1ccc(Cl)cc1,inactive

# Target: Cannabinoid receptor 1 (Rattus norvegicus, UniProt P20272)
# Experiment: Antagonist activity at rat brain CB1 receptor assessed as inhibition of [35S]GTPgammaS binding
# Assay type: functional
# Conditions: not given
# Cannabinoid receptor 1 (Rattus norvegicus, UniProt P20272), sequence (P20272 whole entry): as the sequence (P20272 whole entry) above
row,Compound,EC50 [nM]
1,Cc1c(C(=O)NCCCCCCCN(C)CCCCCCCN)nn(-c2ccc(Cl)cc2Cl)c1-c1ccc(Cl)cc1,4370
2,Cc1c(C(=O)NCCCCCCCCCCCNCCCCCCCCCCCN)nn(-c2ccc(Cl)cc2Cl)c1-c1ccc(Cl)cc1,3620
3,Cc1c(C(=O)NCCCCCCCCCNCCCCCCCCCNC(=O)c2nn(-c3ccc(Cl)cc3Cl)c(-c3ccc(Cl)cc3)c2C)nn(-c2ccc(Cl)cc2Cl)c1-c1ccc(Cl)cc1,1.34
4,Cc1c(C(=O)NCCCCCCCCCCCN(C)CCCCCCCCCCCNC(=O)c2nn(-c3ccc(Cl)cc3Cl)c(-c3ccc(Cl)cc3)c2C)nn(-c2ccc(Cl)cc2Cl)c1-c1ccc(Cl)cc1,29.3
5,Cc1c(C(=O)NCCCCCCCNCCCCCCCN)nn(-c2ccc(Cl)cc2Cl)c1-c1ccc(Cl)cc1,3280

# Target: Cannabinoid receptor 2 (Homo sapiens, UniProt P34972)
# Experiment: Displacement of [3H]CP55940 from human CB2 receptor expressed in CHOK1 cells
# Assay type: cell-based, CHO-K1
# Conditions: not given
# Cannabinoid receptor 2, sequence (P34972 whole entry): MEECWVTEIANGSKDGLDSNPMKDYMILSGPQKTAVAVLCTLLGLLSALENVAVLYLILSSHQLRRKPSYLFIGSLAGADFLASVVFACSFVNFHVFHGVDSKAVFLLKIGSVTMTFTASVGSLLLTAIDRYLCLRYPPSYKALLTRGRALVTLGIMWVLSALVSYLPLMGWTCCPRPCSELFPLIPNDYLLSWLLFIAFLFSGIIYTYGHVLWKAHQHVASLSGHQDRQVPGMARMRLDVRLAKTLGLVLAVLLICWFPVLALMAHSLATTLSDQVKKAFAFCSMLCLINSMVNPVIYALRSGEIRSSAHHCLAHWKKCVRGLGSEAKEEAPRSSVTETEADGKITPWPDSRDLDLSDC
row,Compound,Ki [nM]
1,Cc1c(C(=O)NCCCCCCCN(C)CCCCCCCN)nn(-c2ccc(Cl)cc2Cl)c1-c1ccc(Cl)cc1,1930
2,Cc1c(C(=O)NCCCCCCCCCCCNCCCCCCCCCCCN)nn(-c2ccc(Cl)cc2Cl)c1-c1ccc(Cl)cc1,305
3,Cc1c(C(=O)NCCCCCCCCCNCCCCCCCCCNC(=O)c2nn(-c3ccc(Cl)cc3Cl)c(-c3ccc(Cl)cc3)c2C)nn(-c2ccc(Cl)cc2Cl)c1-c1ccc(Cl)cc1,> 2500
4,Cc1c(C(=O)NCCCCCCCNCCCCCCCN)nn(-c2ccc(Cl)cc2Cl)c1-c1ccc(Cl)cc1,622

# Target: T1, Cannabinoid receptor 1
# Experiment: Displacement of [3H]CP55940 from human CB1 receptor expressed in HEK293 cells
# Assay type: cell-based
# Conditions: not given
row,Compound,Ki [nM]
1,Cc1c(C(=O)NCCCCCCCN(C)CCCCCCCN)nn(-c2ccc(Cl)cc2Cl)c1-c1ccc(Cl)cc1,37.5
2,Cc1c(C(=O)NCCCCCCCCCCCNCCCCCCCCCCCN)nn(-c2ccc(Cl)cc2Cl)c1-c1ccc(Cl)cc1,4.56
3,Cc1c(C(=O)NCCCCCCCCCNCCCCCCCCCNC(=O)c2nn(-c3ccc(Cl)cc3Cl)c(-c3ccc(Cl)cc3)c2C)nn(-c2ccc(Cl)cc2Cl)c1-c1ccc(Cl)cc1,54.1
4,Cc1c(C(=O)NCCCCCCCCCCCN(C)CCCCCCCCCCCNC(=O)c2nn(-c3ccc(Cl)cc3Cl)c(-c3ccc(Cl)cc3)c2C)nn(-c2ccc(Cl)cc2Cl)c1-c1ccc(Cl)cc1,1890
5,Cc1c(C(=O)NCCCCCCCNCCCCCCCN)nn(-c2ccc(Cl)cc2Cl)c1-c1ccc(Cl)cc1,46.7

# Target: T1, Cannabinoid receptor 1
# Experiment: Antagonist activity at human brain CB1 receptor by calcium mobilization assay
# Assay type: functional
# Conditions: read-out: pA2 (converted)
row,Compound,Kb [nM]
1,Cc1c(C(=O)NCCCCCCCN(C)CCCCCCCN)nn(-c2ccc(Cl)cc2Cl)c1-c1ccc(Cl)cc1,21.9
2,Cc1c(C(=O)NCCCCCCCCCCCNCCCCCCCCCCCN)nn(-c2ccc(Cl)cc2Cl)c1-c1ccc(Cl)cc1,3.16
3,Cc1c(C(=O)NCCCCCCCCCNCCCCCCCCCNC(=O)c2nn(-c3ccc(Cl)cc3Cl)c(-c3ccc(Cl)cc3)c2C)nn(-c2ccc(Cl)cc2Cl)c1-c1ccc(Cl)cc1,17.4
4,Cc1c(C(=O)NCCCCCCCCCCCN(C)CCCCCCCCCCCNC(=O)c2nn(-c3ccc(Cl)cc3Cl)c(-c3ccc(Cl)cc3)c2C)nn(-c2ccc(Cl)cc2Cl)c1-c1ccc(Cl)cc1,501
5,Cc1c(C(=O)NCCCCCCCNCCCCCCCN)nn(-c2ccc(Cl)cc2Cl)c1-c1ccc(Cl)cc1,20.4
